According to ChEMBL document CHEMBL5724914, “Linking interpersonal differences in gut microbiota composition and drug biotransformation activity” (2024):
Where a SMILES comes first, the peptide text is derived from it. [ ]: non-standard residue; d: D form. pGlu = O=C1CC[C@@H](C(=O)O)N1; Thz = O=C(O)[C@@H]1CSCN1

Columns and labels:
[1] = (§1) The drug is tested on Z-019 corresponding to rat gut metagenome with ENA study accession number: PRJEB37062 and ENA sample accession number: ERS12561818 for biotransformation under anaerobic condition. The drug concentrations were measured over 9 timepoints collected between 0 and 24 hours of incubation by liquid-chromatography-coupled mass spectrometry (LC–MS); conditions: 2 µM
[2] = as §1, with “Z-014” for “Z-019”, “ERS12561814” for “ERS12561818”; conditions: 2 µM
[3] = as §1, with “on Z-003” for “on Z-019”, “to pig” for “to rat”, “number: ERS12561803” for “number: ERS12561818”; conditions: 2 µM
[4] = as §1, with “on Z-002” for “on Z-019”, “to rabbit” for “to rat”, “number: ERS12561802” for “number: ERS12561818”; conditions: 2 µM
[5] = as §1, with “on WLS-098” for “on Z-019”, “to human” for “to rat”, “number: ERS12561754” for “number: ERS12561818”; conditions: 2 µM
[6] = human gut metagenome, 24 h, 2 µM
[7] = human gut metagenome, 24 h, 2 µM; remark: listed apart in the source
[8] = human gut metagenome, 24 h, 2 µM; remark: listed apart in the source
[9] = human gut metagenome, 24 h, 2 µM; remark: listed apart in the source
[10] = human gut metagenome, 24 h, 2 µM; remark: listed apart in the source
[11] = human gut metagenome, 24 h, 2 µM; remark: listed apart in the source
[12] = human gut metagenome, 24 h, 2 µM; remark: listed apart in the source
[13] = human gut metagenome, 24 h, 2 µM; remark: listed apart in the source
[14] = human gut metagenome, 24 h, 2 µM; remark: listed apart in the source
[15] = human gut metagenome, 24 h, 2 µM; remark: listed apart in the source
[16] = human gut metagenome, 24 h, 2 µM; remark: listed apart in the source
[17] = human gut metagenome, 24 h, 2 µM; remark: listed apart in the source
[18] = human gut metagenome, 24 h, 2 µM; remark: listed apart in the source
[19] = as §1, with “on Z-009” for “on Z-019”, “to pig” for “to rat”, “number: ERS12561809” for “number: ERS12561818”; conditions: 2 µM
[20] = as §1, with “on WLS-006” for “on Z-019”, “to human” for “to rat”, “number: ERS12561741” for “number: ERS12561818”; conditions: 2 µM
Note: call rule not given here.

| Structure (SMILES) | Bacterial Biotransformation [1] | Bacterial Biotransformation [2] | Bacterial Biotransformation [3] | Bacterial Biotransformation [4] | Bacterial Biotransformation [5] | Bacterial Biotransformation [6] | Bacterial Biotransformation [7] | Bacterial Biotransformation [8] | Bacterial Biotransformation [9] | Bacterial Biotransformation [10] | Bacterial Biotransformation [11] | Bacterial Biotransformation [12] | Bacterial Biotransformation [13] | Bacterial Biotransformation [14] | Bacterial Biotransformation [15] | Bacterial Biotransformation [16] | Bacterial Biotransformation [17] | Bacterial Biotransformation [18] | Bacterial Biotransformation [19] | Bacterial Biotransformation [20] |
| --- | --- | --- | --- | --- | --- | --- | --- | --- | --- | --- | --- | --- | --- | --- | --- | --- | --- | --- | --- | --- |
| C[C@@H]1C[C@H]2[C@@H]3CCC4=CC(=O)C=C[C@]4(C)[C@@]3(F)[C@@H](O)C[C@]2(C)[C@@]1(O)C(=O)CO [DEXAMETHASONE] | Compound NOT metabolized | Compound NOT metabolized | Compound metabolized | Compound metabolized | Compound NOT metabolized | Compound NOT metabolized | Compound NOT metabolized | Compound NOT metabolized | Compound NOT metabolized | Compound NOT metabolized | Compound NOT metabolized | Compound NOT metabolized | Compound NOT metabolized | Compound NOT metabolized | Compound NOT metabolized | Compound NOT metabolized | Compound NOT metabolized | Compound NOT metabolized | – | – |
| NC(=O)N1c2ccccc2CC(=O)c2ccccc21 [OXCARBAZEPINE] | Compound NOT metabolized | Compound NOT metabolized | Compound metabolized | Compound metabolized | Compound NOT metabolized | Compound metabolized | Compound NOT metabolized | Compound NOT metabolized | Compound metabolized | Compound metabolized | Compound NOT metabolized | Compound NOT metabolized | Compound NOT metabolized | Compound NOT metabolized | Compound NOT metabolized | Compound NOT metabolized | Compound NOT metabolized | Compound NOT metabolized | Compound metabolized | – |
| COC(=O)[C@H]1[C@H]2C[C@@H]3c4[nH]c5cc(OC)ccc5c4CCN3C[C@H]2C[C@@H](OC(=O)c2cc(OC)c(OC)c(OC)c2)[C@@H]1OC [RESERPINE] | Compound NOT metabolized | Compound NOT metabolized | Compound NOT metabolized | Compound NOT metabolized | Compound metabolized | Compound NOT metabolized | Compound metabolized | Compound NOT metabolized | Compound metabolized | Compound metabolized | Compound metabolized | Compound NOT metabolized | Compound NOT metabolized | – | Compound NOT metabolized | – | Compound metabolized | Compound NOT metabolized | Compound NOT metabolized | Compound metabolized |
| CCCCCCOC(=O)/N=C(/N)c1ccc(NCc2nc3cc(C(=O)N(CCC(=O)OCC)c4ccccn4)ccc3n2C)cc1.CS(=O)(=O)O [DABIGATRAN ETEXILATE MESYLATE] | Compound NOT metabolized | Compound NOT metabolized | Compound NOT metabolized | Compound NOT metabolized | – | Compound NOT metabolized | Compound NOT metabolized | Compound NOT metabolized | Compound NOT metabolized | Compound NOT metabolized | – | – | – | – | – | – | Compound NOT metabolized | Compound NOT metabolized | Compound NOT metabolized | – |
| OCCN1CCN(CCCN2c3ccccc3Sc3ccc(C(F)(F)F)cc32)CC1 [FLUPHENAZINE] | – | Compound NOT metabolized | Compound metabolized | Compound metabolized | Compound NOT metabolized | Compound metabolized | Compound metabolized | Compound metabolized | Compound metabolized | Compound metabolized | Compound metabolized | Compound metabolized | Compound metabolized | Compound metabolized | Compound metabolized | Compound metabolized | – | Compound metabolized | Compound metabolized | Compound NOT metabolized |
| O=C1CC[C@@H](C(=O)N2CSC[C@H]2C(=O)O)N1 [PIDOTIMOD] ([pGlu]-[Thz]-OH) | Compound NOT metabolized | Compound NOT metabolized | Compound NOT metabolized | Compound NOT metabolized | Compound NOT metabolized | Compound NOT metabolized | Compound metabolized | Compound NOT metabolized | Compound NOT metabolized | Compound NOT metabolized | Compound metabolized | Compound NOT metabolized | Compound NOT metabolized | Compound NOT metabolized | Compound NOT metabolized | Compound metabolized | Compound NOT metabolized | Compound NOT metabolized | – | – |
| C=CCN1CC[C@]23c4c5ccc(O)c4O[C@H]2C(=O)CC[C@@]3(O)[C@H]1C5 [NALOXONE] | Compound NOT metabolized | Compound NOT metabolized | Compound metabolized | Compound NOT metabolized | Compound NOT metabolized | Compound NOT metabolized | Compound NOT metabolized | Compound NOT metabolized | Compound NOT metabolized | Compound metabolized | Compound NOT metabolized | Compound NOT metabolized | Compound NOT metabolized | Compound NOT metabolized | Compound NOT metabolized | Compound NOT metabolized | Compound NOT metabolized | Compound NOT metabolized | Compound NOT metabolized | – |
| C#C[C@]1(O)CC[C@H]2[C@@H]3CCC4=CC(=O)CC[C@@H]4[C@H]3CC[C@@]21CC [LEVONORGESTREL] | Compound metabolized | Compound metabolized | – | Compound metabolized | Compound metabolized | Compound NOT metabolized | Compound metabolized | Compound metabolized | Compound metabolized | – | Compound metabolized | Compound metabolized | Compound metabolized | Compound NOT metabolized | Compound NOT metabolized | Compound metabolized | – | Compound metabolized | – | Compound metabolized |
| c1ccc([C@H]2CN3CCSC3=N2)cc1 [LEVAMISOLE] | Compound NOT metabolized | Compound NOT metabolized | – | Compound metabolized | – | Compound metabolized | Compound NOT metabolized | Compound metabolized | Compound metabolized | Compound metabolized | Compound metabolized | Compound metabolized | Compound metabolized | Compound metabolized | Compound metabolized | Compound metabolized | Compound metabolized | Compound metabolized | – | Compound metabolized |
| O=c1[nH]c2ccccc2n1CCCN1CCC(n2c(=O)[nH]c3cc(Cl)ccc32)CC1 [DOMPERIDONE] | Compound NOT metabolized | Compound NOT metabolized | Compound NOT metabolized | Compound NOT metabolized | Compound NOT metabolized | – | – | – | Compound NOT metabolized | Compound NOT metabolized | Compound NOT metabolized | Compound NOT metabolized | Compound NOT metabolized | Compound NOT metabolized | – | – | Compound NOT metabolized | Compound NOT metabolized | Compound NOT metabolized | Compound NOT metabolized |
